# Experimental data: PubChem BioAssay (NCI)
#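 All cell lines were grown in 96-well plates and treated with compound for 48 hours. Abbreviation: GI50, concentration required for 50% inhibition of growth. TGI is the concentration that stops growth completely.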
# Key:
# Assay in all cases: NCI tumour cell line growth inhibition, 48 h
# IGROV1 ovarian = system: IGROV1 ovarian
# RXF 393 renal = system: RXF 393 renal
# SR leukemia = system: SR leukemia
# A498 renal = system: A498 renal
# MDA-MB-231 breast = system: MDA-MB-231 breast
# ACHN renal = system: ACHN renal
# U251 CNS = system: U251 CNS
# SF-539 CNS = system: SF-539 CNS
# PC-3 prostate = system: PC-3 prostate
# NCI-H522 lung = system: NCI-H522 lung
# CAKI-1 renal = system: CAKI-1 renal
# MALME-3M melanoma = system: MALME-3M melanoma
# MOLT-4 leukemia = system: MOLT-4 leukemia
# MDA-MB-435 = system: MDA-MB-435
# KM12 colon = system: KM12 colon
# NCI/ADR-RES ovarian = system: NCI/ADR-RES ovarian
# UO-31 renal = system: UO-31 renal
# COLO 205 colon = system: COLO 205 colon
# HT29 colon = system: HT29 colon
# A549 NSCLC = system: A549 NSCLC
# LOX IMVI melanoma = system: LOX IMVI melanoma
# RPMI-8226 leukemia = system: RPMI-8226 leukemia
# OVCAR-8 ovarian = system: OVCAR-8 ovarian
# SN12C renal = system: SN12C renal
# HCT-15 colon = system: HCT-15 colon
# SK-MEL-28 melanoma = system: SK-MEL-28 melanoma
# SF-295 CNS = system: SF-295 CNS
# OVCAR-4 ovarian = system: OVCAR-4 ovarian
# T-47D breast = system: T-47D breast
# BT-549 breast = system: BT-549 breast
# SK-MEL-2 melanoma = system: SK-MEL-2 melanoma
# OVCAR-5 ovarian = system: OVCAR-5 ovarian
# HCT-116 colon = system: HCT-116 colon
# M14 melanoma = system: M14 melanoma
# SF-268 CNS = system: SF-268 CNS
# DU-145 prostate = system: DU-145 prostate
# NCI-H226 lung = system: NCI-H226 lung
# UACC-257 melanoma = system: UACC-257 melanoma
# OVCAR-3 ovarian = system: OVCAR-3 ovarian
# SNB-19 CNS = system: SNB-19 CNS
# HL-60(TB) leukemia = system: HL-60(TB) leukemia
# EKVX NSCLC = system: EKVX NSCLC
# HOP-62 NSCLC = system: HOP-62 NSCLC
# NCI-H23 lung = system: NCI-H23 lung
# HOP-92 NSCLC = system: HOP-92 NSCLC
# 786-0 renal = system: 786-0 renal
# HCC-2998 colon = system: HCC-2998 colon
# SK-OV-3 ovarian = system: SK-OV-3 ovarian
# HS 578T breast = system: HS 578T breast
# SK-MEL-5 melanoma = system: SK-MEL-5 melanoma
# CCRF-CEM leukemia = system: CCRF-CEM leukemia
# NCI-H460 lung = system: NCI-H460 lung
# TK-10 renal = system: TK-10 renal
# SNB-75 CNS = system: SNB-75 CNS
# SW-620 colon = system: SW-620 colon
# MCF7 breast = system: MCF7 breast
# UACC-62 melanoma = system: UACC-62 melanoma
compound,measurement,setting,value
O=C1Nc2cc(Cl)ccc2Oc2cc(Oc3ccccc3)ccc21,GI50,IGROV1 ovarian,5.42 µM
same,TGI,IGROV1 ovarian,29.9 µM
same,GI50,RXF 393 renal,2.09 µM
same,TGI,RXF 393 renal,9.87 µM
same,GI50,SR leukemia,2.89 µM
same,TGI,SR leukemia,29.5 µM
same,GI50,A498 renal,1.69 µM
same,TGI,A498 renal,9.72 µM
same,GI50,MDA-MB-231 breast,5.5 µM
same,TGI,MDA-MB-231 breast,51.4 µM
same,GI50,ACHN renal,12.2 µM
same,TGI,ACHN renal,76.6 µM
same,GI50,U251 CNS,5.26 µM
same,TGI,U251 CNS,23.8 µM
same,GI50,SF-539 CNS,8.53 µM
same,TGI,SF-539 CNS,40 µM
same,GI50,PC-3 prostate,4.85 µM
same,TGI,PC-3 prostate,48.4 µM
same,GI50,NCI-H522 lung,3.51 µM
same,TGI,NCI-H522 lung,> 100 µM
same,GI50,CAKI-1 renal,3.81 µM
same,TGI,CAKI-1 renal,38.8 µM
same,GI50,MALME-3M melanoma,10.9 µM
same,TGI,MALME-3M melanoma,47.4 µM
same,GI50,MOLT-4 leukemia,4.78 µM
same,TGI,MOLT-4 leukemia,> 100 µM
same,GI50,MDA-MB-435,0.761 µM
same,TGI,MDA-MB-435,5.85 µM
same,GI50,KM12 colon,2.09 µM
same,TGI,KM12 colon,14 µM
same,GI50,NCI/ADR-RES ovarian,2.53 µM
same,TGI,NCI/ADR-RES ovarian,9.77 µM
same,GI50,UO-31 renal,6.52 µM
same,TGI,UO-31 renal,> 100 µM
same,GI50,COLO 205 colon,5.3 µM
same,TGI,COLO 205 colon,19.9 µM
same,GI50,HT29 colon,3.22 µM
same,TGI,HT29 colon,18.3 µM
same,GI50,A549 NSCLC,4.66 µM
same,TGI,A549 NSCLC,33.8 µM
same,GI50,LOX IMVI melanoma,5.51 µM
same,TGI,LOX IMVI melanoma,> 100 µM
same,GI50,RPMI-8226 leukemia,5.35 µM
same,TGI,RPMI-8226 leukemia,> 100 µM
same,GI50,OVCAR-8 ovarian,8.81 µM
same,TGI,OVCAR-8 ovarian,78.4 µM
same,GI50,SN12C renal,5.52 µM
same,TGI,SN12C renal,71.1 µM
same,GI50,HCT-15 colon,3.84 µM
same,TGI,HCT-15 colon,> 100 µM
same,GI50,SK-MEL-28 melanoma,5.94 µM
same,TGI,SK-MEL-28 melanoma,32.8 µM
same,GI50,SF-295 CNS,3.64 µM
same,TGI,SF-295 CNS,18.5 µM
same,GI50,OVCAR-4 ovarian,6.52 µM
same,TGI,OVCAR-4 ovarian,23.8 µM
same,GI50,T-47D breast,4.79 µM
same,TGI,T-47D breast,36.8 µM
same,GI50,BT-549 breast,8.97 µM
same,TGI,BT-549 breast,51.1 µM
same,GI50,SK-MEL-2 melanoma,4.99 µM
same,TGI,SK-MEL-2 melanoma,35.7 µM
same,GI50,OVCAR-5 ovarian,8.69 µM
same,TGI,OVCAR-5 ovarian,> 100 µM
same,GI50,HCT-116 colon,4.23 µM
same,TGI,HCT-116 colon,32 µM
same,GI50,M14 melanoma,4.76 µM
same,TGI,M14 melanoma,50.2 µM
same,GI50,SF-268 CNS,6.33 µM
same,TGI,SF-268 CNS,31.6 µM
same,GI50,DU-145 prostate,6.52 µM
same,TGI,DU-145 prostate,26.6 µM
same,GI50,NCI-H226 lung,6.41 µM
same,TGI,NCI-H226 lung,55.8 µM
same,GI50,UACC-257 melanoma,16 µM
same,TGI,UACC-257 melanoma,> 100 µM
same,GI50,OVCAR-3 ovarian,2.53 µM
same,TGI,OVCAR-3 ovarian,7.32 µM
same,GI50,SNB-19 CNS,10.5 µM
same,TGI,SNB-19 CNS,49.2 µM
same,GI50,HL-60(TB) leukemia,3.6 µM
same,TGI,HL-60(TB) leukemia,> 100 µM
same,GI50,EKVX NSCLC,4.36 µM
same,TGI,EKVX NSCLC,37.2 µM
same,GI50,HOP-62 NSCLC,5.68 µM
same,TGI,HOP-62 NSCLC,20 µM
same,GI50,NCI-H23 lung,3.78 µM
same,TGI,NCI-H23 lung,29.9 µM
same,GI50,HOP-92 NSCLC,1.32 µM
same,TGI,HOP-92 NSCLC,9.41 µM
same,GI50,786-0 renal,8.96 µM
same,TGI,786-0 renal,42.2 µM
same,GI50,HCC-2998 colon,8.8 µM
same,TGI,HCC-2998 colon,> 100 µM
same,GI50,SK-OV-3 ovarian,4.66 µM
same,TGI,SK-OV-3 ovarian,17.4 µM
same,GI50,HS 578T breast,3.31 µM
same,TGI,HS 578T breast,27.5 µM
same,GI50,SK-MEL-5 melanoma,3.13 µM
same,TGI,SK-MEL-5 melanoma,15.1 µM
same,GI50,CCRF-CEM leukemia,3.24 µM
same,TGI,CCRF-CEM leukemia,> 100 µM
same,GI50,NCI-H460 lung,2.91 µM
same,TGI,NCI-H460 lung,11.7 µM
same,GI50,TK-10 renal,12 µM
same,TGI,TK-10 renal,47.3 µM
same,GI50,SNB-75 CNS,1.49 µM
same,TGI,SNB-75 CNS,20.1 µM
same,GI50,SW-620 colon,2.73 µM
same,TGI,SW-620 colon,16.9 µM
same,GI50,MCF7 breast,3.39 µM
same,TGI,MCF7 breast,18.3 µM
same,GI50,UACC-62 melanoma,4.15 µM
same,TGI,UACC-62 melanoma,91.3 µM
